Experimental data taken from patent US8846601B2, “Melanocortin receptor-specific peptides” (Palatin Technologies, Inc., priority 2009, dated 2014).
Like-named read-outs stand apart in the source and are kept apart here. Peptide text beside a SMILES is read from it.

Tests used:
[1] = target: T1, hMC4-R (Homo sapiens (Human), UniProt P32245); assay: Competitive inhibition binding assay using [I125]-NDP-α-MSH, hMC4-R membranes
Experimental: (§1) A competitive inhibition binding assay is performed using membrane homogenates prepared from HEK-293 cells that express recombinant hMC4-R, hMC3-R, or hMC5-R, and from B-16 mouse melanoma cells (containing endogenous MC1-R). In some instances, HEK-293 cells that express recombinant hMC1-R were employed. In the examples that follow, all MC3-R, MC4-R and MC5-R values are for human recombinant receptors. […] Membrane homogenates were incubated with 0.2 nM (for hMC4-R) 0.4 nM (for MC3-R and MC5-R) or 0.1 nM (for mouse B16 MC1-R or hMC1-R) [I^125]-NDP-α-MSH (Perkin Elmer) and increasing concentrations of test peptides of the present invention in buffer containing 25 mM HEPES buffer (pH 7.5) with 100 mM NaCl, 2 mM CaCl2, 2 mM MgCl2, 0.3 mM 1,10-phenanthroline, and 0.2% bovine serum albumin. After incubation for 60 minutes at 37° C., the assay mixture was filtered and the membranes washed three times with ice-cold buffer. Filters were dried and counted in a gamma counter for bound radioactivity. […] Maximal specific binding (100%) was defined as the difference in radioactivity (cpm) bound to cell membranes in the absence and presence of 1 μM NDP-α-MSH. […] Each assay was conducted in triplicate and the actual mean values are described, with results less than 0% reported as 0%. Ki values for test peptides of the present invention were determined using Graph-Pad Prism® curve-fitting software.

[2] = target: T1, hMC4-R; assay: Assay for agonist activity: cAMP accumulation in HEK-293 cells that express hMC4-R; details: for functional status at MC4-R (agonist / partial agonist): agonist = intrinsic activity 70% or higher, partial agonist 10-70%
Experimental: By “intrinsic activity” is meant the maximal functional activity achievable by a compound in a specified melanocortin receptor expressing cell system, such as the maximal stimulation of adenylyl cyclase.
Accumulation of intracellular cAMP was examined as a measure of the ability of the peptides of the present invention to elicit a functional response in HEK-293 cells that express MC4-R. Confluent HEK-293 cells that express recombinant hMC4-R were detached from culture plates by incubation in enzyme-free cell dissociation buffer. Dispersed cells were suspended in Earle's Balanced Salt Solution containing 10 mM HEPES (pH 7.5), 1 mM MgCl2, 1 mM glutamine, 0.5% albumin and 0.3 mM 3-isobutyl-1-methyl-xanthine (IBMX), a phosphodiesterase inhibitor. […] Cells were exposed for 15 minutes at 37° C. to peptides of the present invention dissolved in DMSO (final DMSO concentration of 1%) at a concentration range of 0.05-5000 nM in a total assay volume of 200 μL. […] Data analysis was performed by nonlinear regression analysis with Graph-Pad Prism® software. The maximum efficacies of the test peptides of the present invention were compared to that achieved by the reference melanocortin agonist NDP-αMSH.

[3] = target: T1, hMC4-R; assay: Competitive binding assay using Eu-NDP-α-MSH (TRF), hMC4-R membranes; details: averaged; Eu-NDP-α-MSH (values marked *); read-out: MC4-R Ki
Experimental: Alternatively, a competitive inhibition binding assay was performed employing Eu-NDP-α-MSH (PerkinElmer Life Sciences catalog No. AD0225) with determination by time-resolved fluorometry (TRF) of the lanthanide chelate. […] After incubation for 90 minutes at 37° C., the reaction was stopped by filtration over AcroWell 96-well filter plates (Pall Life Sciences). The filter plates were washed 4 times with 200 μL of ice-cold phosphate-buffered saline. DELFIA Enhancement solution (PerkinElmer Life Sciences) was added to each well. […] Each assay was conducted in duplicate and mean values were utilized. Ki values were determined by curve-fitting with Graph-Pad Prism® software using a one-site fixed-slope competition binding model.

[4] = target: T2, hMC1-R (Homo sapiens (Human), UniProt Q01726); assay: Competitive inhibition binding assay, human recombinant MC1-R
T2 sequence (Q01726 whole entry): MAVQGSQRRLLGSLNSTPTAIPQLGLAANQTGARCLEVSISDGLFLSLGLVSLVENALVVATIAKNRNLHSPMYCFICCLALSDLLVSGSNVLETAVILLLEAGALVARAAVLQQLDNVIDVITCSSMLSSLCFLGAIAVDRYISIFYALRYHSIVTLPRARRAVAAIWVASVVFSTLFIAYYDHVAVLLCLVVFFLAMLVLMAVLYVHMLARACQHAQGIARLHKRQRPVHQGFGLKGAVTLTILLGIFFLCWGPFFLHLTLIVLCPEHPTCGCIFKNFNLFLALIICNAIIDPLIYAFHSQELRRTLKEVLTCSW
Experimental: as §1

[5] = target: T2, hMC1-R; assay: Functional assay (EC50 and intrinsic activity) at hMC1-R; type: cell-based
[6] = averaged, [I125]-NDP-α-MSH (values not marked *), read-out: MC4-R Ki

T1 sequence (P32245 whole entry): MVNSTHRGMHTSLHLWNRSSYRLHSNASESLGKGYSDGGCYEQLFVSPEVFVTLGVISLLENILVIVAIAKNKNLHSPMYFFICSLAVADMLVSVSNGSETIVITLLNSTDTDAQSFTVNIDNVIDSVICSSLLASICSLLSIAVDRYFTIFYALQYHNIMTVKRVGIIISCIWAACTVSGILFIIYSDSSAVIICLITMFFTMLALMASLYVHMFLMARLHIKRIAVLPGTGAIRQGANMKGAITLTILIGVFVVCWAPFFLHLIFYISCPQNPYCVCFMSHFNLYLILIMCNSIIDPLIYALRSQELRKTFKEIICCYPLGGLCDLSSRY

Row | SMILES | EC50 [2] [nM] | Ki [3] [nM] | Ki [4] [nM] | also measured
1 | CC(=O)N[C@H](CCCNC(=N)N)C(=O)N[C@H]1CC(=O)NCCCC[C@@H](C(N)=O)NC(=O)[C@H](Cc2c[nH]c3ccccc23)NC(=O)[C@H](CCCNC(=N)N)NC(=O)[C@@H](Cc2ccccc2)NC(=O)[C@H](CCC(N)=O)NC1=O [compound 71, Ac-D-Arg-cyclo(Asp- Gln-D-Phe-Arg-Trp- Lys)-NH2] | 2 |  |  | Ki [1, 6]: 45 nM; Ki ([1]; read-out: hMC4-R (Ki)): 45 nM
2 | CC(=O)N[C@@H](CCCNC(=N)N)C(=O)N[C@H]1CC(=O)NCCCC[C@@H](C(N)=O)NC(=O)[C@H](Cc2c[nH]c3ccccc23)NC(=O)[C@H](CCCNC(=N)N)NC(=O)[C@@H](Cc2ccccc2)NC(=O)[C@H](CNC(=O)[C@H]2CCNC2)NC1=O [compound 118, Ac-Arg-cyclo(Asp- Dap(betaPro)-D-Ph- Arg-Trp-Lys)-NH2] |  | 145 |  | 
3 | CC(=O)N[C@@H](CCCNC(=N)N)C(=O)N[C@H]1CC(=O)NCCCC[C@@H](C(N)=O)NC(=O)[C@H](Cc2c[nH]c3ccccc23)NC(=O)[C@H](CCCNC(=N)N)NC(=O)[C@@H](Cc2ccccc2)NC(=O)[C@@H]2C[C@@H](Cc3ccccc3Cl)CN2C1=O [compound 123, Ac-Arg-cyclo(Asp- Pro(4R-2-Cl-Bzl)-D- Phe-Arg-Trp-Lys)-NH2] |  | 8 |  | 
4 | CC(=O)N[C@@H](CCCNC(=N)N)C(=O)N[C@H]1CC(=O)NCCCC[C@@H](C(N)=O)NC(=O)[C@H](Cc2c[nH]c3ccccc23)NC(=O)[C@H](CCCNC(=N)N)NC(=O)[C@@H](Cc2ccccc2)NC(=O)[C@@H]2C[C@@H](Cc3cccc(Cl)c3)CN2C1=O [compound 124, Ac-Arg-cyclo(Asp- Pro(4R-3-Cl-Bzl)-D- Phe-Arg-Trp-Lys)-NH2] |  | 19 |  | 
5 | CC(=O)N[C@@H](CCCNC(=N)N)C(=O)N[C@H]1CCCC(=O)NCC[C@@H](C(N)=O)NC(=O)[C@H](Cc2c[nH]c3ccccc23)NC(=O)[C@H](CCCNC(=N)N)NC(=O)[C@@H](Cc2ccccc2)NC(=O)[C@H](Cc2c[nH]cn2)NC1=O [compound 126, Ac-Arg-cyclo(hGlu-His- D-Phe-Arg-Trp-Dab)- NH2] | 0.047 | 1 |  | functional status at MC4-R (agonist / partial agonist) [2]: agonist
6 | CC(=O)N[C@@H](CCCNC(=N)N)C(=O)N[C@H]1CCCC(=O)NCC[C@@H](C(N)=O)NC(=O)[C@H](Cc2c[nH]c3ccccc23)NC(=O)[C@H](CCCNC(=N)N)NC(=O)[C@@H](Cc2ccccc2)NC(=O)[C@H](CCN)NC1=O [compound 127, Ac-Arg-cyclo(hGlu-Dab- D-Phe-Arg-Trp-Dab)- NH2] | 0.06 | 2 |  | functional status at MC4-R (agonist / partial agonist) [2]: agonist
7 | CC(=O)N[C@@H](CCCNC(=N)N)C(=O)N[C@H]1CCNC(=O)CCC[C@@H](C(N)=O)NC(=O)[C@H](Cc2c[nH]c3ccccc23)NC(=O)[C@H](CCCNC(=N)N)NC(=O)[C@@H](Cc2ccccc2)NC(=O)[C@H](Cc2c[nH]cn2)NC1=O [compound 128, Ac-Arg-cyclo(Dab-His- D-Phe-Arg-Trp-hGlu)- NH2] |  |  |  | functional status at MC4-R (agonist / partial agonist) [2]: agonist
8 | CC(=O)N[C@@H](CCCNC(=N)N)C(=O)N[C@H]1CCNC(=O)CCC[C@@H](C(N)=O)NC(=O)[C@H](Cc2c[nH]c3ccccc23)NC(=O)[C@H](CCCNC(=N)N)NC(=O)[C@@H](Cc2ccccc2)NC(=O)[C@H](CCN)NC1=O [compound 129, Ac-Arg-cyclo(Dab-Dab- D-Phe-Arg-Trp-hGlu)- NH2] | 0.065 | 4 |  | functional status at MC4-R (agonist / partial agonist) [2]: agonist
9 | CC(=O)N[C@H](CCCCN)C(=O)N[C@H]1CCCNC(=O)CC[C@@H](C(N)=O)NC(=O)[C@H](Cc2c[nH]c3ccccc23)NC(=O)[C@H](CCCNC(=N)N)NC(=O)[C@@H](Cc2ccccc2)NC(=O)[C@H](Cc2c[nH]cn2)NC1=O [compound 133, Ac-D-Lys-cyclo(Orn- His-D-Phe-Arg-Trp- Glu)-NH2] |  | 8 |  | 
10 | CC(=O)N[C@H](CCCNC(=N)N)C(=O)N[C@H]1CCCNC(=O)CC[C@@H](C(N)=O)NC(=O)[C@H](Cc2c[nH]c3ccccc23)NC(=O)[C@H](CCCNC(=N)N)NC(=O)[C@@H](Cc2ccccc2)NC(=O)[C@H](CC(N)=O)NC1=O [compound 156, Ac-D-Arg-cyclo(Orn- Asn-D-Phe-Arg-Trp- Glu)-NH2] |  |  | 840 | EC50 [5]: 80 nM
11 | CC(=O)N[C@@H](CCCNC(=N)N)C(=O)N[C@H]1CCNC(=O)CCC[C@@H](C(N)=O)NC(=O)[C@H](Cc2c[nH]c3ccccc23)NC(=O)[C@H](CCCNC(=N)N)NC(=O)[C@@H](Cc2ccccc2)NC(=O)[C@H](CCC(N)=O)NC1=O [compound 159, Ac-Arg-cyclo(Dab-Gln- D-Phe-Arg-Trp-hGlu)- NH2] | 0.825 |  | 133 | Ki [1, 6]: 4 nM; Ki ([1]; read-out: hMC4-R (Ki)): 4 nM; EC50 [5]: 26 nM
12 | CC(=O)N[C@@H](CCCNC(=N)N)C(=O)N[C@H]1CCCC(=O)NCC[C@@H](C(N)=O)NC(=O)[C@H](Cc2c[nH]c3ccccc23)NC(=O)[C@H](CCCNC(=N)N)NC(=O)[C@@H](Cc2ccccc2)NC(=O)[C@H](CC(N)=O)NC1=O [compound 160, Ac-Arg-cyclo(hGlu-Asn- D-Phe-Arg-Trp-Dab)- NH2] (HELM PEPTIDE1{[ac].R.[O=C([C@H](CCCC(=O)[*:3])N[*:1])[*:2]].N.[dF].R.W.[Dab].[am]}$PEPTIDE1,PEPTIDE1,3:R3-8:R3$$$V2.0) | 0.245 |  | 295 | Ki [1, 6]: 8 nM; Ki ([1]; read-out: hMC4-R (Ki)): 8 nM
13 | CC(=O)N[C@@H](CCCNC(=N)N)C(=O)N[C@H]1CCC(=O)NCCC[C@@H](C(N)=O)NC(=O)[C@H](Cc2c[nH]c3ccccc23)NC(=O)[C@H](CCCNC(=N)N)NC(=O)[C@@H](Cc2ccccc2)NC(=O)[C@H](CC(N)=O)NC1=O [compound 161, Ac-Arg-cyclo(Glu-Asn- D-Phe-Arg-Trp-Orn)- NH2] |  |  | 155 | EC50 [5]: 13 nM; EC50 ([2]; read-out: hMC4-R EC50): 0.413 nM
14 | CC(=O)N[C@@H](CCCNC(=N)N)C(=O)N[C@H]1CCCCNC(=O)C[C@@H](C(N)=O)NC(=O)[C@H](Cc2ccc3ccccc3c2)NC(=O)[C@H](CCCNC(=N)N)NC(=O)[C@@H](Cc2ccccc2)NC(=O)[C@H](CC(N)=O)NC1=O [compound 162, Ac-Arg-cyclo(Lys-Asn- D-Phe-Arg-Nal 2-Asp)- NH2] (HELM PEPTIDE1{[ac].R.K.N.[dF].R.[O=C([C@H](Cc1ccc2ccccc2c1)N[*:1])[*:2]].D.[am]}$PEPTIDE1,PEPTIDE1,3:R3-8:R3$$$V2.0) | 0.85 |  | 255 | Ki [1, 6]: 5 nM; Ki ([1]; read-out: hMC4-R (Ki)): 5 nM; EC50 [5]: 22 nM
